The record followed here is patent publication US8461328B2, “Tricyclic heterocyclic compounds, compositions and methods of use thereof” (Genentech, Inc., priority 2010, dated 2013).

The structures appear in SMILES notation.

Holding throughout (type): biochemical
Experiment [1] has as its target T1, JAK1 (Homo sapiens, UniProt P23458).
T1 construct: made in house; host or cells: SF9 insect cells (baculovirus)
Briefly: JAK1 inhibition (Table 4). The conditions noted are these: read-out: JAK1 Ki.

The target in experiment [2] is T2, JAK2 (Homo sapiens, UniProt O60674).
T2 construct: made in house; host or cells: SF9 insect cells (baculovirus)
Briefly: JAK2 inhibition (Table 4). The conditions noted are these: read-out: JAK2 Ki.

In experiment [3] the target is T3, JAK3 (Homo sapiens, UniProt P52333).
T3 construct: made in house; host or cells: SF9 insect cells (baculovirus)
Briefly: JAK3 inhibition (Table 4). The conditions noted are these: read-out: JAK3 Ki.

Experiment [4] concerns the target T4, TYK2 (Homo sapiens, UniProt P29597).
T4 construct: made in house; host or cells: SF9 insect cells (baculovirus)
T4 sequence (P29597 873-1187): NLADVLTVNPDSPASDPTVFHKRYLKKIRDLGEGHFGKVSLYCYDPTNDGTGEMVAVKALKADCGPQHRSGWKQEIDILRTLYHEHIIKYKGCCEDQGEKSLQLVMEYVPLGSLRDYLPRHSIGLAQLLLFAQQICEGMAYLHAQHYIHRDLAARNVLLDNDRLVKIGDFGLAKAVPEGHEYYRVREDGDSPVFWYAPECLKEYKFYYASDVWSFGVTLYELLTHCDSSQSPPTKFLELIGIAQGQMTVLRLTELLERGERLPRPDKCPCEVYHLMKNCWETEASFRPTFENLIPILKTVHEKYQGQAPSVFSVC
Briefly: TYK2 inhibition (Table 4).

T3 sequence (P52333 783-1124): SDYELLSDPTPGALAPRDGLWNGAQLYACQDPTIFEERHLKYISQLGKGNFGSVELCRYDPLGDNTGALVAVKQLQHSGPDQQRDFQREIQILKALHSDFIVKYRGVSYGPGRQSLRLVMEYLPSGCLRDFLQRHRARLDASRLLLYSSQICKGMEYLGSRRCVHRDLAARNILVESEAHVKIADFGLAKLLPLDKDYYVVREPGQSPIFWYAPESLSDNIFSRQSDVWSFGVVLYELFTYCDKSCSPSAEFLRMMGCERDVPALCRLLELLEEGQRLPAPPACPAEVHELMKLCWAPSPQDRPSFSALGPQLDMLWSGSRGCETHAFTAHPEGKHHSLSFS
T2 sequence (O60674 812-1132): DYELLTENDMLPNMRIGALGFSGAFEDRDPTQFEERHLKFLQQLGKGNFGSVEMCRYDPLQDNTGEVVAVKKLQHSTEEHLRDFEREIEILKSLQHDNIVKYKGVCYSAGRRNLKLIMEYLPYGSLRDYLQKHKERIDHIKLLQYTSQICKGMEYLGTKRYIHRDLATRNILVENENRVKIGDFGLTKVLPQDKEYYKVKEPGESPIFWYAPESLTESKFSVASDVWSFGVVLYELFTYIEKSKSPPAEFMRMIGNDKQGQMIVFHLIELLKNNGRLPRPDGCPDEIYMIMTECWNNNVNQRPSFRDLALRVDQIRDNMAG
T1 sequence (P23458 852-1154): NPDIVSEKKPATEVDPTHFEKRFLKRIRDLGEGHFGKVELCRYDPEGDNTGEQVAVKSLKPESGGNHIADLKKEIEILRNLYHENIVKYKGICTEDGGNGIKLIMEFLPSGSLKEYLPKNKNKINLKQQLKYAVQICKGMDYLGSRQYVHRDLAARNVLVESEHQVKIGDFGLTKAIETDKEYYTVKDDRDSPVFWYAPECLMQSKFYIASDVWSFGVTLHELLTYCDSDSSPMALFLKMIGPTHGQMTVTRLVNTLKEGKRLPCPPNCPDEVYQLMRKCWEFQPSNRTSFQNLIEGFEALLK

As for `CS(=O)(=O)NC1CCC(n2cnc3cnc4[nH]ccc4c32)C1` (racemic) [Example 630, Racemic trans N-[3-(6H-1,2,3,5,6-tetraaza-as-indacen-1-yl)-cyclopentyl]-methanesulfonamide], the Ki was 2.59 nM in experiment [1], 6.62 nM in experiment [2], 18.4 nM in experiment [3] and 25.8 nM in experiment [4].
Regarding `C[C@@H](O)c1nc2cnc3[nH]ccc3c2n1C1CCCC(C#N)C1` (mixture of isomers) [Example 648, Racemic cis 3-[2-((R)-1-Hydroxy-ethyl)-6H-1,2,3,5,6-tetraaza-as-indacen-1-yl]-cyclohexanecarbonitrile], the Ki in experiment [1] came out at 6.06 nM; in experiment [2], 72.4 nM; in experiment [3] it was 119 nM; in experiment [4], 26.8 nM.
For the compound `CC1(n2cnc3cnc4[nH]ccc4c32)CCCN(C(=O)CC#N)C1` (racemic) [Example 706, 3-[3-Methyl-3-(6H-1,2,3,5,6-tetraaza-as-indacen-1-yl)-piperidin-1-yl]-3-oxo-propionitrile], the Ki in experiment [1] came to 28.1 nM; in experiment [2] it was 67.5 nM; in experiment [3], 20.6 nM; in experiment [4] it was 207 nM.
Take `c1nc2c([nH]1)CCC(n1cnc3cnc4[nH]ccc4c31)C2` (racemic) [Example 707, 1-(4,5,6,7-Tetrahydro-3H-benzoimidazol-5-yl)-1,6-dihydro-1,2,3,5,6-tetraaza-as-indacene]: the inhibition constant Ki in experiment [1] came out at 74.5 nM; in experiment [2], 123 nM; in experiment [3] it was 112 nM; in experiment [4], 391 nM.
Regarding `FC(F)(F)CNC1CCC(n2cnc3cnc4[nH]ccc4c32)C1` (racemic) [Example 717, [3-(6H-1,3,5,6-tetraaza-as-indacen-1-yl)-cyclopentyl]-(2,2,2-trifluoro-ethyl)-amine], the Ki in experiment [1] was 6.11 nM; in experiment [2], 13.3 nM; in experiment [3] it was 59.7 nM; in experiment [4] it was 35 nM.
Consider `FC(F)(F)CNC1CCC(n2nnc3cnc4[nH]ccc4c32)C1` (racemic) [Example 718, [3-(6H-1,2,3,5,6-Pentaaza-as-indacen-1-yl)-cyclopentyl]-(2,2,2-trifluoro-ethyl)-amine], for which the Ki in experiment [1] turned out to be 10.3 nM; in experiment [2] it was 20.8 nM; in experiment [3], 143 nM; in experiment [4], 83.1 nM.
For `Cc1nc2cnc3[nH]ccc3c2n1C1CCC(NS(C)(=O)=O)C1` (racemic) [Example 721, N-[3-(2-methyl-6H-1,3,5,6-tetraaza-as-indacen-1-yl)-cyclopentyl]-methanesulfonamide], the inhibition constant Ki in experiment [1] amounted to 1.09 nM; in experiment [2], 4.04 nM; in experiment [3] it was 14.2 nM; in experiment [4], 13.4 nM.
For `COCCNC1CCC(n2cnc3cnc4[nH]ccc4c32)C1` (racemic) [Example 726, (2-Methoxy-ethyl)-[3-(6H-1,3,5,6-tetraaza-as-indacen-1-yl)-cyclopentyl]-amine], the inhibition constant (Ki) stood at 176 nM in experiment [1], 785 nM in experiment [2], 754 nM in experiment [3] and 2220 nM in experiment [4].
On to `Cc1nc2cnc3[nH]ccc3c2n1C1CCC(NC(=O)CC#N)C1` (racemic) [Example 728, 2-Cyano-N-[3-(2-methyl-6H-1,3,5,6-tetraaza-as-indacen-1-yl)-cyclopentyl]-acetamide], for which the Ki in experiment [1] amounted to 1.52 nM; in experiment [2], 6.24 nM; in experiment [3] it was 2.26 nM; in experiment [4], 22.4 nM.
Turning to `O=C(CC(F)(F)F)NC1CCC(n2cnc3cnc4[nH]ccc4c32)C1` (racemic) [Example 729, 3,3,3-Trifluoro-N-[3-(6H-1,3,5,6-tetraaza-as-indacen-1-yl)-cyclopentyl]-propionamide], the Ki in experiment [1] was 2 nM; in experiment [2] it was 9.79 nM; in experiment [3], 13.5 nM; in experiment [4] it was 48.9 nM.
`Cc1nc2cnc3[nH]ccc3c2n1C1CCC(NC(=O)CC(F)(F)F)C1` (racemic) [Example 730, 3,3,3-Trifluoro-N-[3-(2-methyl-6H-1,3,5,6-tetraaza-as-indacen-1-yl)-cyclopentyl]-propionamide]: the Ki in experiment [1] came out at 1.49 nM; in experiment [2], 7.24 nM; in experiment [3], 1.87 nM; in experiment [4], 21.1 nM.
For `O=C(CCC(F)(F)F)NC1CCC(n2cnc3cnc4[nH]ccc4c32)C1` (racemic) [Example 732, 4,4,4-Trifluoro-N-[3-(6H-1,3,5,6-tetraaza-as-indacen-1-yl)-cyclopentyl]-butyramide], the Ki in experiment [1] came to 2.85 nM; in experiment [2], 8.59 nM; in experiment [3], 16.2 nM; in experiment [4], 64.7 nM.
Consider `Cc1nc2cnc3[nH]ccc3c2n1C1CCC(NC(=O)N(C)CC(F)(F)F)C1` (racemic) [Example 736, 1-Methyl-3-[3-(2-methyl-6H-1,3,5,6-tetraaza-as-indacen-1-yl)-cyclopentyl]-1-(2,2,2-trifluoro-ethyl)-urea], for which the Ki in experiment [1] is 1.28 nM; in experiment [2], 6.42 nM; in experiment [3], 0.79 nM; in experiment [4] it was 57.2 nM.
On to `CN(CC(F)(F)F)C(=O)NC1CCC(n2cnc3cnc4[nH]ccc4c32)C1` (racemic) [Example 737, 1-Methyl-3-[3-(6H-1,3,5,6-tetraaza-as-indacen-1-yl)-cyclopentyl]-1-(2,2,2-trifluoro-ethyl)-urea], for which the Ki in experiment [1] was found to be 4.53 nM; in experiment [2] it was 8.44 nM; in experiment [3] it was 7.19 nM; in experiment [4], 107 nM.
Consider `COCCN(C)C(=O)NC1CCC(n2c(C)nc3cnc4[nH]ccc4c32)C1` (racemic) [Example 738, 1-(2-Methoxy-ethyl)-1-methyl-3-[3-(2-methyl-6H-1,3,5,6-tetraaza-as-indacen-1-yl)-cyclopentyl]-urea], for which the Ki is 11.6 nM in experiment [1], 49.1 nM in experiment [2], 80.9 nM in experiment [3] and 351 nM in experiment [4].
With `COCCN(C)C(=O)NC1CCC(n2cnc3cnc4[nH]ccc4c32)C1` (racemic) [Example 739, 1-(2-Methoxy-ethyl)-1-methyl-3-[3-(6H-1,3,5,6-tetraaza-as-indacen-1-yl)-cyclopentyl]-urea], the Ki in experiment [1] turned out to be 21.3 nM; in experiment [2], 53.8 nM; in experiment [3], 299 nM; in experiment [4], 536 nM.
On the same counts, the results for `OCCOc1nc2cnc3[nH]ccc3c2n1C1CCCOC1` (racemic) [Example 780, 2-[1-(Tetrahydro-pyran-3-yl)-1,6-dihydro-1,3,5,6-tetraaza-as-indacen-2-yloxy]-ethanol] are 15.8 nM, 41.2 nM, 74.2 nM and 109 nM.
As to `CCN1CCC(n2c(CCNS(C)(=O)=O)nc3cnc4[nH]ccc4c32)C(F)(F)C1` (racemic) [Example 804, N-{2-[1-(1-Ethyl-3,3-difluoro-piperidin-4-yl)-1,6-dihydro-1,3,5,6-tetraaza-as-indacen-2-yl]-ethyl}-methanesulfonamide], the Ki in experiment [1] was 2.97 nM; in experiment [2], 25.2 nM; in experiment [3], 13.6 nM; in experiment [4] it was 172 nM.
Regarding `COCC(=O)NCCc1nc2cnc3[nH]ccc3c2n1C1CCCOC1` (racemic) [Example 860, 2-Methoxy-N-{2-[1-(tetrahydro-pyran-3-yl)-1,6-dihydro-1,3,5,6-tetraaza-as-indacen-2-yl]-ethyl}-acetamide], the Ki stood at 20.2 nM in experiment [1], 296 nM in experiment [2], 561 nM in experiment [3] and 806 nM in experiment [4].
In the case of `O=C(Cc1nc2cnc3[nH]ccc3c2n1C1CC2CCC1C2)N1CCC(O)CC1` (racemic) [Example 869, 2-(1-Bicyclo[2.2.1]hept-2-yl-1,6-dihydro-1,3,5,6-tetraaza-as-indacen-2-yl)-1-(4-hydroxy-piperidin-1-yl)-ethanone], the Ki amounted to 0.89 nM in experiment [1], 17.9 nM in experiment [2], 8.69 nM in experiment [3] and 10.1 nM in experiment [4].
As to `OC(c1nc2cnc3[nH]ccc3c2n1C1CCCCC1)C1CCOCC1` (racemic) [Example 875, (1-Cyclohexyl-1,6-dihydro-1,3,5,6-tetraaza-as-indacen-2-yl)-(tetrahydro-pyran-4-yl)-methanol], the Ki in experiment [1] stood at 35 nM; in experiment [2], 290 nM; in experiment [3], 95.5 nM; in experiment [4], 86.2 nM.
Regarding `OC(c1nc2cnc3[nH]ccc3c2n1C1CCCCC1)C1CC1` (racemic) [Example 940, (1-Cyclohexyl-1,6-dihydro-1,3,5,6-tetraaza-as-indacen-2-yl)-cyclopropyl-methanol], the inhibition constant (Ki) in experiment [1] amounted to 0.96 nM; in experiment [2], 31.3 nM; in experiment [3] it was 25.5 nM; in experiment [4], 8.91 nM.
Turning to `CCN1CCC(n2c(CO)nc3cnc4[nH]ccc4c32)C(F)(F)C1` (racemic) [Example 941, [1-(1-Ethyl-3,3-difluoro-piperidin-4-yl)-1,6-dihydro-1,3,5,6-tetraaza-as-indacen-2-yl]-methanol], the Ki in experiment [1] stood at 1.8 nM; in experiment [2], 10.6 nM; in experiment [3] it was 5.97 nM; in experiment [4] it was 14.7 nM.
For the compound `O=C(O)C1CC1C(O)c1nc2cnc3[nH]ccc3c2n1C1CCCCC1` (racemic) [Example 942, 2-[(1-Cyclohexyl-1,6-dihydro-1,3,5,6-tetraaza-as-indacen-2-yl)-hydroxy-methyl]-cyclopropanecarboxylic acid], the Ki in experiment [1] is 5.09 nM; in experiment [2] it was 200 nM; in experiment [3], 94.1 nM; in experiment [4] it was 30.5 nM.
